Results published in patent publication US10314816B2, “Antimicrobial compounds, compositions and methods of use thereof” (Wisconsin Alumni Research Foundation, priority 2012, dated 2019).
Where two headings read alike, the source gives them in different places.

Key:
E. coli BW25113 ΔtolC = test: MIC of DCAP analogs, LB media, macrodilution (CLSI); assay type: cell-based; details: Escherichia coli
Method: Luria-Bertani (LB) media (10 g/L tryptone, 10 g/L NaCl, 5 g/L yeast extract, pH 7.0) was used to grow all the strains represented in Tables 5 and 6. All the cultures were grown at 37° C. All the E. coli strains were grown while shaking at 200 rpm and the clinical pathogens were statically incubated. […]

S. aureus FRI 100 [1] = test: Minimum biofilm eradication concentration (MBEC); assay type: cell-based, Staphylococcus aureus; details: S. aureus FRI 100 biofilm
Method: (§1) Determination of the minimum biofilm inhibitory concentration of growth (bMIC) and biofilm eradication concentration (MBEC). Overnight cultures of C. crescentus and S. aureus were grown and diluted 100-fold into appropriate nutrient media. Aliquots of the diluted suspension were transferred into wells of 96-well plates (150 μL/well). 2-fold serial dilutions were performed for compound-containing wells. For every experiment, three replicates for each compound concentration tested were included. After transferring aliquots of the suspension, the plates were closed with specialized lids that have protruding pins (Nunc STP System), and the plates were sealed using Parafilm®. The plates were incubated in a static incubator at 30° C. (C. crescentus) or 37° C. (S. aureus) for 24 hours. After the cells had formed biofilms on the surface of the pins, the pins were rinsed by dipping them in M2 (C. crescentus) or PBS (S. aureus) solutions. To rinse the pins, clean, sterile 96-well plates were used (aliquots of 200 μL/well); each rinse lasted 10 sec. After washing away planktonic cells loosely bound to biofilms, the pins were inserted into a 96-well plate that was pre-aliquoted with nutrient media containing antibiotics (2-fold dilutions, a final volume of 150 μL/well). The plates were sealed with Parafilm®, and incubated for 17 hours, and the bMIC was measured at the end of the incubation by visual inspection. After the bMIC run, the rinse steps were repeated to remove planktonic cells, and the pins were inserted into a 96-well plate that was pre-aliquoted with drug-free nutrient media (aliquots of 150 μL/well). The plates were sealed with Parafilm®, incubated for 24 hours, and the MBEC was measured at the end of the incubation by visual inspection.
After performing bMIC experiments, biofilms growing on the pins of the lid were transferred to nutrient media devoid of antibiotics to measure the minimum concentration of antibiotic that prevented planktonic growth from biofilms in antibiotic-free nutrient media (MBEC). […]

S. aureus FRI 100 [2] = test: Minimum biofilm inhibitory concentration (bMIC); assay type: cell-based, Staphylococcus aureus; details: S. aureus FRI 100 biofilm
Method: as §1, with “After the bMIC run, the rinse steps were repeated to remove planktonic cells, and the pins were inserted into a 96-well plate that was pre-aliquoted with drug-free nutrient media (aliquots of 150 μL/well).” left out
(§2) Membrane-active compounds are also efficient at eradicating biofilm-associated cells (Table 2). […] To determine the efficacy of antibiotics against biofilms, the minimum biofilm inhibitory concentration (bMIC) and the minimum biofilm eradication concentration (MBEC) were measured. […] After 24 hours of exposure to compounds, the lowest concentration of antibiotic that inhibited planktonic cell growth in the wells (bMIC) was determined.

C. crescentus CB15N [3] = test: MIC of bacterial growth, macrodilution (Table 2); assay type: cell-based, Caulobacter crescentus; details: actively growing cells
Method: Bacterial strains and growth conditions. Luria-Bertani (LB) media (10 g/L tryptone, 10 g/L NaCl, 5 g/L yeast extract, pH 7.2) was used to grow B. subtilis 168, S. aureus FRI100, and P. aeruginosa K1115 strains. For P. aeruginosa PAO1 and K1119 strains and two E. coli BW25113 strains, M8 minimal media (241 mg/L MgSO4, 4 mg/L glucose, 5 mg/L casamino acids, 12.8 g/L Na2HPO4.7H2O, 3 g/L KH2PO4, and 0.5 g/L NaCl) was used. PYE media (2 g/L peptone, 1 g/L yeast extract, 0.8 mM MgSO4, and 0.5 mM CaCl2) was used for culturing C. crescentus cells at 30° C. All cultures were grown at 37° C., except for C. crescentus (30° C.). All cultures were grown while shaking at 200 rpm.
Determination of the minimum inhibitory concentration (MIC) of bacterial growth. The MIC of various organisms in liquid media was determined using the macrodilution method according to the NCCLS guidelines. For the starting inoculum, cultures were diluted to contain approximately 5×10^5 cells/mL in growth media. To create a two-fold dilution series for the macrodilution technique, each compound was added to the first culture tube (4 mL total volume) at the highest concentration. 2 mL of this culture was diluted into an equal volume of inoculated media (a two-fold dilution). The final volume for each culture was 2 mL.

C. crescentus CB15N [4] = test: Minimum biofilm inhibitory concentration (bMIC); assay type: cell-based, Caulobacter crescentus
Method: as §1, with “After the bMIC run, the rinse steps were repeated to remove planktonic cells, and the pins were inserted into a 96-well plate that was pre-aliquoted with drug-free nutrient media (aliquots of 150 μL/well).” left out
as §2

C. crescentus CB15N [5] = test: Minimum biofilm eradication concentration (MBEC); assay type: cell-based, Caulobacter crescentus
Method: as §1
After performing bMIC experiments, biofilms growing on the pins of the lid were transferred to nutrient media devoid of antibiotics to measure the minimum concentration of antibiotic that prevented planktonic growth from biofilms in antibiotic-free nutrient media (MBEC). MBEC indicates whether the exposure to antimicrobial agent used during the bMIC experiment sterilized biofilm-associated cells. […] CCCP was the only effective antibiotic against S. aureus biofilms. Since CCCP was not as effective as DCAP at killing stationary cells, it was hypothesized that this variability in efficacy of membrane-active drugs is in part caused by changes in membrane composition (i.e., membrane proteins and lipid content) at different developmental stages of bacterial cells. […]

C. crescentus CB15N [6] = test: Minimum stationary-bactericidal concentration (MSC); assay type: cell-based, Caulobacter crescentus; details: C. crescentus CB15N, stationary cells, 24 hours
Method: (§3) Determination of the Minimum Stationary-Bactericidal Concentration.
(§4) Cultures of C. crescentus (24 hour incubation) and S. aureus cells (5 day incubation) were grown from single colonies. Cells were collected by centrifugation (8500 rpm for 2.5 minutes) and re-suspended in M2 salt solution (for C. crescentus; 1.74 g/L Na2HPO4, 1.06 g/L KH2PO4, and 0.5 g/L NH4Cl) or phosphate-buffered saline (for S. aureus; PBS, Fisher Scientific). The centrifugation and re-suspension was repeated two more times. After the repeated washing steps, the cell suspension was diluted 10-fold to achieve approximately 10^8 cells/mL. Aliquots of the diluted cell suspension were transferred into wells of a 96-well plate (100 μL/well), and 2-fold serial dilutions were performed to test a range of antibiotic concentrations. The plate was sealed with Parafilm® and incubated for 24 hours at room temperature in the dark. After incubation, 50 μl was removed from each well to spread on nutrient agar plates (1.5% agar in PYE for C. crescentus, and LB for S. aureus). The colonies on each plate were counted after growing the cells for 1-2 days. For determining the kinetics of bactericidal activity of DCAP on stationary cultures, the washed cells were diluted by 100-fold in appropriate solutions and tested using a single concentration of the compound while including a DMSO control sample. Cell suspensions were kept in closed microcentrifuge tubes instead of the wells of 96-well plates. 100 μL of the suspensions was removed for plating at each time point. All MSC experiments were performed in static conditions.
(§5) In addition to its activity against actively growing bacteria, DCAP kills cells in stationary phase (Table 3). This property was tested against C. crescentus and S. aureus. […] To ensure that bacteria were deprived of nutrients, the cells were grown into late stationary phase (i.e., 24 hours for C. crescentus and 5 days for S. aureus). These cells were collected, suspended in isotonic solutions devoid of amino acids or sugars, and treated with a small molecule (DMSO, DCAP, CCCP or ampicillin). Cell viability was measured over time by plating culture aliquots on non-selective, solid growth media. The minimum concentration of antibiotic required to completely eliminate colony formation was designated as the minimum stationary-bactericidal concentration (MSC). […] CCCP inhibited the proliferation of C. crescentus cells regardless of their physiological status. However, the MSC of CCCP for S. aureus was >300-fold higher than the MIC. This dramatic decrease in the effectiveness of CCCP in S. aureus may be due to changes in membrane composition as cells adjust their metabolism in nutrient-deprived conditions.

S. aureus FRI 100 [7] = test: as above; assay type: cell-based, Staphylococcus aureus; details: S. aureus FRI 100, stationary cells, 24 hours
Method: as §3, §4, §5

Vibrio cholera = test: MIC of DCAP analogs, LB media, microdilution (CLSI); assay type: cell-based; details: Vibrio cholerae
Method: (§6) Luria-Bertani (LB) media (10 g/L tryptone, 10 g/L NaCl, 5 g/L yeast extract, pH 7.0) was used to grow all the strains represented in Tables 5 and 6. All the cultures were grown at 37° C. All the E. coli strains were grown while shaking at 200 rpm and the clinical pathogens were statically incubated.
(§7) For clinical pathogenic organisms including S. typhimurium, V. cholera, S. boydii, K pneumonia, E. aerogenes, A. baumannii, E. tarda, and M. morganii strains, liquid LB media in 96-well microplates (100 μL/well) and the microdilution method from the CLSI guidelines were used.

Salmonella typhimurium = test: as above; assay type: cell-based; details: Salmonella enterica, microdilution (Table 6)
Method: as §6, §7

Acinetobacter baumannii = test: as above; assay type: cell-based; details: microdilution (Table 6)
Method: as §6, §7

Klebsiella pneumonia = test: as above; assay type: cell-based; details: Klebsiella pneumoniae, microdilution (Table 6)
Method: as §6, §7

Enterobacter aerogenes = test: as above; assay type: cell-based; details: Klebsiella aerogenes, microdilution (Table 6)
Method: as §6, §7

Shigella boydii = test: as above; assay type: cell-based; details: microdilution (Table 6)
Method: as §6, §7

Morganella morganii = test: as above; assay type: cell-based; details: microdilution (Table 6)
Method: as §6, §7

Edwardsiella tarda = test: as above; assay type: cell-based; details: microdilution (Table 6)
Method: as §6, §7

[8] = BW25113, read-out: MIC (ΔtolC E. coli)

CC(C)(C)NCC(O)Cn1c2ccc(Cl)cc2c2cc(Cl)ccc21 (stereo not drawn) [Compound 11]
MIC (E. coli BW25113 ΔtolC; [8]): 40 µM

OCC(CO)(CO)NC[C@@H](O)Cn1c2ccccc2c2ccccc21 [Compound 4]
MIC (E. coli BW25113 ΔtolC; [8]): > 80 µM

CCC(CC)NCC(O)Cn1c2ccc(Cl)cc2c2cc(Cl)ccc21 (stereo not drawn) [Compound 6]
MIC (E. coli BW25113 ΔtolC; [8]): 5 µM

OCC(CO)NCC(O)Cn1c2ccc(Cl)cc2c2cc(Cl)ccc21 (stereo not drawn) [Compound 5]
MIC (E. coli BW25113 ΔtolC; [8]): 20 µM

CCC(CO)(CO)NCC(O)Cn1c2ccc(Cl)cc2c2cc(Cl)ccc21 (stereo not drawn) [Compound 14]
MIC (E. coli BW25113 ΔtolC; [8]): 20 µM

CC1(C)S[C@@H]2[C@H](NC(=O)[C@H](N)c3ccccc3)C(=O)N2[C@H]1C(=O)O [Amp, ampicillin]
MBEC (S. aureus FRI 100 [1]): >200 µg/mL | bMIC (S. aureus FRI 100 [2]): 0.8 µg/mL | MIC (C. crescentus CB15N [3]): 50 µg/mL | bMIC (C. crescentus CB15N [4]): 100 µg/mL | MBEC (C. crescentus CB15N [5]): >400 µg/mL | MBEC (C. crescentus CB15N [5]; listed as ampicillin): > 400 µM | MSC (C. crescentus CB15N [6]): >400 µg/mL | MSC (S. aureus FRI 100 [7]): 100 µg/mL

CCCCCNCC(O)Cn1c2ccc(Cl)cc2c2cc(Cl)ccc21 (stereo not drawn) [Compound 7]
MIC (E. coli BW25113 ΔtolC; [8]): 5 µM

CCC(CC)CNCC(O)Cn1c2ccc(Cl)cc2c2cc(Cl)ccc21 (stereo not drawn) [Compound 10]
MIC (E. coli BW25113 ΔtolC; BW25113): 2.5 µM | MIC (E. coli BW25113 ΔtolC; [8]): 2.5 µM | MIC (Vibrio cholera): 6.25 µM | MIC (Salmonella typhimurium): 200 µM | MIC (Acinetobacter baumannii): 25 µM | MIC (Klebsiella pneumonia): > 200 µM | MIC (Enterobacter aerogenes): > 200 µM | MIC (Shigella boydii): 25 µM | MIC (Morganella morganii): > 200 µM | MIC (Edwardsiella tarda): 12.5 µM

CC(CO)(CO)NCC(O)Cn1c2ccc(Cl)cc2c2cc(Cl)ccc21 (stereo not drawn) [Compound 13]
MIC (E. coli BW25113 ΔtolC; [8]): 40 µM

OCC(CO)(CO)NCC(O)CN1CCc2cc(Cl)ccc21 (stereo not drawn) [Compound 12]
MIC (E. coli BW25113 ΔtolC; [8]): > 40 µM

OC(CNC1CCCCC1)Cn1c2ccc(Cl)cc2c2cc(Cl)ccc21 (stereo not drawn) [Compound 9]
MIC (E. coli BW25113 ΔtolC; BW25113): 2.5 µM | MIC (E. coli BW25113 ΔtolC; [8]): 2.5 µM | MIC (Vibrio cholera): 25 µM | MIC (Salmonella typhimurium): > 200 µM | MIC (Acinetobacter baumannii): 100 µM | MIC (Klebsiella pneumonia): > 200 µM | MIC (Enterobacter aerogenes): > 200 µM | MIC (Shigella boydii): 200 µM | MIC (Morganella morganii): > 200 µM | MIC (Edwardsiella tarda): 200 µM

CC(C)CCNCC(O)Cn1c2ccc(Cl)cc2c2cc(Cl)ccc21 (stereo not drawn) [Compound 8]
MIC (E. coli BW25113 ΔtolC; BW25113): 2.5 µM | MIC (E. coli BW25113 ΔtolC; [8]): 2.5 µM | MIC (Vibrio cholera): 6.25 µM | MIC (Salmonella typhimurium): 50 µM | MIC (Acinetobacter baumannii): 12.5 µM | MIC (Klebsiella pneumonia): 50 µM | MIC (Enterobacter aerogenes): 50 µM | MIC (Shigella boydii): 25 µM | MIC (Morganella morganii): 50 µM | MIC (Edwardsiella tarda): 25 µM

OCC(CO)(CO)NC[C@H](O)Cn1c2ccc(Cl)cc2c2cc(Cl)ccc21 [Compound 3]
MIC (E. coli BW25113 ΔtolC; [8]): 20 µM

OCC(CO)(CO)NC[C@@H](O)Cn1c2ccc(Cl)cc2c2cc(Cl)ccc21 [Compound 2]
MIC (E. coli BW25113 ΔtolC; [8]): 20 µM
